Test results as given in the supplement of paper PMC9386025.

Experiments:
Experiment in all cases: drug sensitivity score (DSS) (DSS (dimensionless)); higher = more sensitive (stronger drug response)
JHOS2 = tested on: JHOS2
Procedure, shortened: (§1)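 Cells, either patient-derived cultures or ovarian cancer cell lines given 100 ng/ml doxycycline for no less than three days to induce shRNA, went into 384-well plates at 1 000 – 1 500 per well over drugs pre-plated in five concentrations across a 10,000-fold range. The plates were held for three days at 37 °C with 5.0 % CO2. Cell viability was then taken from CellTiter-Glo luminescence on a PHERAstar FS. For each drug, a drug sensitivity score from its dose-response curve was obtained by a method described earlier.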

FIMM-PDC7 = patient-derived ovarian cancer cells; details: genetic perturbation: none (patient-derived cell culture)
Procedure, shortened: as §1

OVSAHO = tested on: OVSAHO
Procedure, shortened: as §1

FIMM-PDC6 = patient-derived ovarian cancer cells; details: genetic perturbation: none (patient-derived cell culture)
Procedure, shortened: as §1

FIMM-PDC3 = patient-derived ovarian cancer cells; details: genetic perturbation: none (patient-derived cell culture)
Procedure, shortened: as §1

Kuramochi = tested on: Kuramochi
Procedure, shortened: as §1

FIMM-PDC4 = patient-derived ovarian cancer cells; details: genetic perturbation: none (patient-derived cell culture)
Procedure, shortened: as §1

FIMM-PDC1 = patient-derived ovarian cancer cells; details: genetic perturbation: none (patient-derived cell culture)
Procedure, shortened: as §1

FIMM-PDC5 = patient-derived ovarian cancer cells; details: genetic perturbation: none (patient-derived cell culture)
Procedure, shortened: as §1

[1] = genetic perturbation: DOX-induced PTK7 shRNA knockdown
[2] = genetic perturbation: DOX-induced control shRNA

| Structure (SMILES) | drug sensitivity score (JHOS2; [1]) | drug sensitivity score (JHOS2; [2]) | drug sensitivity score (FIMM-PDC7) | drug sensitivity score (OVSAHO; [1]) | drug sensitivity score (OVSAHO; [2]) | drug sensitivity score (FIMM-PDC6) | drug sensitivity score (FIMM-PDC3) | drug sensitivity score (Kuramochi; [1]) | drug sensitivity score (Kuramochi; [2]) | drug sensitivity score (FIMM-PDC4) | drug sensitivity score (FIMM-PDC1) | drug sensitivity score (FIMM-PDC5) |
| --- | --- | --- | --- | --- | --- | --- | --- | --- | --- | --- | --- | --- |
| CC[C@H](CC#N)OC(=O)N[C@@H](C)c1cccc(NC(=O)Nc2ccc(-c3cnco3)c(OC)c2)c1 [AVN944] | 5.8 | 9.6 | 10 | 11.7 | 9.7 | 6.6 | 12 | 9.7 | 8.9 | 7.4 | 7.65 | 18.1 |
| Cc1[nH]nc(C(F)(F)F)c1Cc1sc2c(c1C(=O)N1C[C@](C)(O)CO1)c(=O)n(C)c(=O)n2C(C)C [AZD3965] | < 0 | < 0 | < 0 | 12.1 | < 0 | < 0 | < 0 | 0.7 | 3.4 | < 0 | 2.7 | < 0 |
| NC(=O)Nc1cc(-c2cccc(F)c2)sc1C(=O)N[C@H]1CCCNC1 [AZD7762] | 7.6 | 4.6 | 5.8 | 6.4 | 3.1 | 6.4 | 9.1 | 6 | 2.9 | 8.1 | 7.75 | 7 |
| COc1ccc(-c2ccc3c(N4CCOC[C@@H]4C)nc(N4CCOC[C@@H]4C)nc3n2)cc1CO [AZD8055] | 11.8 | 17 | 25.7 | 20.7 | 19 | 21.8 | 12.9 | 15.9 | 16.8 | 21.2 | 13.9 | 29.2 |
| Cc1ncc(-c2ccnc(Nc3ccc(S(C)(=O)=O)cc3)n2)n1C(C)C [AZD-5438] | 14.4 | 8.3 | 7.6 | 8.2 | 7 | 9.3 | 7.3 | 7.55 | 7.8 | 9.5 | 7.9 | 12.8 |
| CN(C)Cc1c(C(=O)NCCOc2ccc(C(=O)NO)cc2)oc2ccccc12 [Abexinostat] | 14.4 | 13.3 | 11.7 | 14.6 | 11.9 | 14.3 | 13.3 | 18.5 | 8.6 | 8.7 | 12.7 | 16.2 |
| CN(C)C/C=C/C(=O)Nc1cc2c(Nc3ccc(F)c(Cl)c3)ncnc2cc1O[C@H]1CCOC1 [Afatinib] | < 0 | 1.8 | 13.6 | 1.9 | 1.9 | 15.8 | 11 | 1.7 | 1.5 | 15.9 | 4.1 | 21.9 |
| COc1cccc2c1C(=O)c1c(O)c3c(c(O)c1C2=O)C[C@@](O)(/C(CO)=N/NC(=O)CCCCCN1C(=O)C=CC1=O)C[C@@H]3O[C@H]1C[C@H](N)[C@H](O)[C@H](C)O1 [Aldoxorubicin] | 7.9 | 7.4 | 8.4 | 7.9 | 5.1 | 7 | 7.4 | 5.45 | 4.9 | 8.5 | 5.7 | 6.6 |
| COc1cc(Nc2ncc3c(n2)-c2ccc(Cl)cc2C(c2c(F)cccc2OC)=NC3)ccc1C(=O)O [Alisertib] | 1.9 | 0.9 | < 0 | 7 | 2.4 | < 0 | 6.2 | 6.25 | 4.2 | 3.9 | 0.85 | 7.2 |
| CN1CC[C@H](c2c(O)cc(O)c3c(=O)cc(-c4ccccc4Cl)oc23)[C@H](O)C1 [Alvocidib] | 14.4 | 14.5 | 20.4 | 16.7 | 14.7 | 16.7 | 15.8 | 16.6 | 14.8 | 17.4 | 16.6 | 22.2 |
| CCN(CC)CCNC(=O)c1c(C)[nH]c(/C=C2\C(=O)Nc3ccc(-c4csc(-c5ccccc5)n4)cc32)c1C [Amcasertib] | 8.4 | < 0 | 5.3 | 1.6 | 0.8 | < 0 | 2.6 | 4.6 | < 0 | < 0 | < 0 | 0.3 |
| COc1cc(NS(C)(=O)=O)ccc1Nc1c2ccccc2nc2ccccc12 [Amsacrine] | 3.3 | 4.4 | 4 | 5.3 | < 0 | 3.9 | 6.3 | 1.25 | 1.4 | 5.1 | 4.55 | 5.8 |
| O=C1CN2Cc3c(ccc(Cl)c3Cl)N=C2N1 [Anagrelide] | < 0 | 3.5 | 12 | < 0 | < 0 | 3.5 | 2.5 | < 0 | < 0 | 0.8 | < 0 | < 0 |
| CC(=O)OC[C@H]1O[C@@H]([S-])[C@H](OC(C)=O)[C@@H](OC(C)=O)[C@@H]1OC(C)=O.CCP(CC)CC.[Au+] [Auranofin] | 2.5 | 0.7 | 2.2 | 11 | 5.6 | 4 | 5.5 | 6.75 | 7.5 | 1.2 | 1.9 | 1.1 |
| Nc1ncn([C@@H]2O[C@H](CO)[C@@H](O)[C@H]2O)c(=O)n1 [Azacitidine] | 2.2 | 3.2 | 9.3 | 3.8 | < 0 | 7.7 | 5.2 | 1.05 | 0.6 | 2.8 | 4.15 | 6.4 |
| Cc1cc(-c2nc(-c3ccc(OC(F)(F)F)cc3)no2)nn1Cc1ccnc(N2CCN(C3CC3)CC2)c1 [BAY 87-2243] | 1.3 | < 0 | < 0 | < 0 | 3.5 | 8.3 | 0.9 | 5.7 | < 0 | 1.5 | < 0 | < 0 |
| CC[C@@H]1C(=O)N(C)c2cnc(Nc3ccc(C(=O)NC4CCN(C)CC4)cc3OC)nc2N1C1CCCC1 [BI 2536] | 16 | 4.6 | 3.5 | 5.9 | 8.8 | 0.1 | 7.5 | 10.7 | 3 | 6.1 | 6.05 | 19.4 |

| Structure (SMILES) | drug sensitivity score (JHOS2; [1]) | drug sensitivity score (JHOS2; [2]) | drug sensitivity score (FIMM-PDC7) | drug sensitivity score (OVSAHO; [1]) | drug sensitivity score (OVSAHO; [2]) | drug sensitivity score (FIMM-PDC6) | drug sensitivity score (FIMM-PDC3) | drug sensitivity score (Kuramochi; [1]) | drug sensitivity score (Kuramochi; [2]) | drug sensitivity score (FIMM-PDC4) | drug sensitivity score (FIMM-PDC1) | drug sensitivity score (FIMM-PDC5) |
| --- | --- | --- | --- | --- | --- | --- | --- | --- | --- | --- | --- | --- |
| COc1c(C)cnc(Cn2cnc3c(Cl)nc(N)nc32)c1C [BIIB021] | 16.5 | 12.6 | 14.6 | < 0 | 8.1 | 13.5 | 12.1 | 10.4 | 0.9 | 18.8 | 12.8 | 18 |
| O=C(Nc1cccc(Nc2ncc(Br)c(NCCc3cnc[nH]3)n2)c1)N1CCCC1 [BX-912] | 5.5 | 2.4 | 9.2 | 3.8 | 2.2 | 2.2 | 1.2 | 2.35 | 3.7 | 3.9 | 2.85 | 6.9 |
| O=C(/C=C/c1cccc(S(=O)(=O)Nc2ccccc2)c1)NO [Belinostat] | 13 | 9.4 | 10 | 15.2 | 9.7 | 13 | 14.1 | 17.6 | 7.6 | 5.5 | 9.65 | 12.3 |
| Cc1sc2c(c1C)C(c1ccc(Cl)cc1)=N[C@@H](CC(=O)Nc1ccc(O)cc1)c1nnc(C)n1-2 [Birabresib] | 9.6 | 8.1 | 8.3 | 7.3 | 13.4 | 3.7 | 4.3 | 13.9 | 4.8 | 5.6 | 4.2 | 12.7 |
| CC[C@H](NC(=O)[C@H](C)NC)C(=O)N1C[C@@H](O)C[C@H]1Cc1c(-c2[nH]c3cc(F)ccc3c2C[C@@H]2C[C@H](O)CN2C(=O)[C@H](CC)NC(=O)[C@H](C)NC)[nH]c2cc(F)ccc12 [Birinapant] | 17.4 | 16.7 | < 0 | 5.7 | 2.1 | 4.1 | 11.7 | 3.9 | 3.6 | < 0 | 6.4 | 0.6 |
| CC(C)C[C@H](NC(=O)[C@H](Cc1ccccc1)NC(=O)c1cnccn1)B(O)O [Bortezomib] | 25.7 | 23.6 | 31.9 | 24.2 | 11.6 | 31.8 | 30.6 | 16.3 | 20.1 | 28.8 | 29.1 | 27.4 |
| COc1cc(Nc2c(C#N)cnc3cc(OCCCN4CCN(C)CC4)c(OC)cc23)c(Cl)cc1Cl [Bosutinib] | 9.3 | 10.9 | 6.5 | 12.1 | 8.7 | 12.3 | 10.5 | 10.6 | 6.4 | 13.7 | 7.4 | 14.3 |
| Nc1cc(C(F)(F)F)c(-c2cc(N3CCOCC3)nc(N3CCOCC3)n2)cn1 [Buparlisib] | 6.4 | 4.6 | 10.8 | 7.2 | 6.6 | 7.8 | 7.1 | 7.25 | 4.6 | 9.7 | 5.4 | 12.2 |
| CCN1C(=O)CNc2ncc(-c3ccc(-c4nc[nH]n4)nc3C)nc21 [CC-115] | 6.4 | 7.1 | 17.4 | 10 | 7.1 | 9.5 | 6.6 | 6.85 | 7.1 | 10 | 5.8 | 14 |
| Cc1noc2c1-c1ccccc1C(c1ccc(Cl)cc1)=N[C@H]2CC(N)=O [CPI-0610] | 5.9 | 4.2 | 5.5 | 7 | 9.5 | 3.1 | 3.7 | 10.5 | 6.1 | 3.9 | 2.1 | 8.7 |
| CN(C)c1cc2c(cc1Sc1nc3c(N)nccc3n1CCNCC(C)(C)C)OCO2 [CUDC-305] | 11.5 | 9.9 | 12.7 | < 0 | 6.3 | 11.6 | 9.8 | 7.3 | 0.8 | 15.8 | 11.5 | 12.8 |
| COc1ccc(-c2nc(N3CCOCC3)c3sc(CN(C)c4ncc(C(=O)NO)cn4)cc3n2)cn1 [CUDC-907] | 31.3 | 28.1 | 25.9 | 27.8 | 31 | 29.9 | 34.3 | 33.1 | 27.7 | 22.7 | 29.9 | 34.5 |
| CO[C@H]1C(=O)[C@]2(C)[C@@H](OC)C[C@H]3OC[C@@]3(OC(C)=O)[C@H]2[C@H](OC(=O)c2ccccc2)[C@]2(O)C[C@H](OC(=O)[C@H](O)[C@@H](NC(=O)OC(C)(C)C)c3ccccc3)C(C)=C1C2(C)C [Cabazitaxel] | 20.4 | 13.8 | 12.7 | 12.3 | 15.3 | 8.7 | 21.9 | 19.6 | 3.8 | 23.9 | 17.4 | 23.5 |
| C=CC(=O)Nc1cc2c(Nc3ccc(F)c(Cl)c3)ncnc2cc1OCCCN1CCOCC1 [Canertinib] | 8.1 | 7.4 | 12.1 | 8.2 | 7.6 | 20.8 | 15.7 | 8.9 | 8.6 | 20.4 | 7.4 | 27.5 |
| O=C(O)C1(C(=O)O)CCC1.[NH2-].[NH2-].[Pt+2] [Carboplatin] | 7.6 | 5.3 | 2.4 | 8.7 | 2.7 | 2.8 | 16.2 | 4.4 | 4.7 | 3.2 | 2.55 | 3.8 |
| CC(C)C[C@H](NC(=O)[C@H](CCc1ccccc1)NC(=O)CN1CCOCC1)C(=O)N[C@@H](Cc1ccccc1)C(=O)N[C@@H](CC(C)C)C(=O)[C@@]1(C)CO1 [Carfilzomib] | 25.2 | 23.7 | 26.1 | 24.9 | 20.5 | 29.3 | 28.3 | 21.9 | 25 | 22.2 | 26.6 | 23.6 |
